Assay results published in patent US9249157B2, “Tricyclic heterocycle compounds” (BRISTOL-MYERS SQUIBB COMPANY, priority 2012, dated 2016).

Experiments:
human tumor xenografts = assay: Human Tumor Xenograft Models in Mice (tumor type not stated); assay type: in vivo; settings: for antitumor activity with oral administration (PO): Human Tumor Xenograft Models in mice
Description: Human Tumor Xenograft Models in Mice
All rodents were obtained from Harlan Sprague Dawley Co. (Indianapolis, Ind.), and maintained in an ammonia-free environment in a defined and pathogen—free colony. All mice were quarantined approximately 1 week prior to their use for tumor propagation and drug efficacy testing. Mice were fed food and water ad libitum. The animal care program of Bristol-Myers Squibb Pharmaceutical Research Institute is fully accredited by the American Association for Accreditation of Laboratory Animal Care (AAALAC). All experiments were performed in accordance with Bristol-Myers Squibb (BMS) animal test methods and guidelines.
Tumor xenografts were grown and maintained subcutaneously (SC) in immunocompromized balb/c nu/nu nude or NOD-SCID mice (Harlan Sprague Dawley). Tumors were propagated as subcutaneous transplants in the appropriate mouse strain (Table 10) using tumor fragments obtained from donor mice.
The required numbers of animals needed to detect a meaningful response were pooled at the start of the experiment and each was given a subcutaneous implant of a tumor fragment (˜20 mg) with a 13-gauge trocar. Tumors were allowed to grow to the pre-determined size window (tumors outside the range were excluded) and animals were evenly distributed to various treatment and control groups. […]
Tumor response was determined by measurement of tumors with a caliper twice a week, until the tumors reached a predetermined “target” size of 0.5 gm or 1 gm depending on the tumor type. […]
Tumor response criteria are expressed in terms of tumor growth inhibition (% TGI). […] For this purpose, the tumor weight of a group is expressed as medium tumor weight (MTW).
Whenever possible, antitumor activity was determined at a range of dose levels up to the maximum tolerated dose (MTD) which is defined as the dose level immediately below which excessive toxicity (i.e., more than one death) occurred. When death occurred, the day of death was recorded. […]

human Notch 3 = assay: Notch-CBF1 Transactivation Assay (Notch 3); assay type: cell-based; settings: HeLa cells transfected with truncated Notch 3 and CBF1 luciferase reporter; 18 hours incubation
Description: (§1) Notch-CBF1 Transactivation Assay
(§2) The Notch-CBF1 (C-promoter binding factor I) cell based transactivation assay is based on the ability of the released Notch intracellular domain fragments (NICDs) to function as transcription factors in conjunction with CBF1 and other nuclear factors. Luciferase assays were used to measure the antagonism of Notch-CBF1 transcriptional activity. HeLa cervical cancer cells are transiently co-transfected with pCDNA3.1/Hygro plasmids containing truncated Notch 1, Notch 2, Notch 3, or Notch 4 receptors and a PGL3 luciferase reporter vector containing 4 copies of CBF1 binding site. The cells were then tested for Notch-CBF1 activity in the absence or presence of test compounds. HeLa cells, maintained in DMEM (high glucose with HEPES), 1× glutamine/penicillin/streptomycin and 10% Fetal Bovine serum, were transiently transfected in a T175 Flask (4.5×10^6 cells/flask) using the Monster Transfection Kit (Minis #MIR2906) according to manufacturers specifications. Table 1 denotes respective DNA quantity for the transfections.
(§3) Six hours post-transfection, cells were trypsinized and plated into a 384-well black Poly-D-lysine coated tissue culture plate at a density of 5×10^3 cells/well in 95 μL assay media (DMEM (high glucose with HEPES), 1× glutamine/penicillin/streptomycin, 0.0125% BSA, 1× non-essential amino acids). Assay media (5 μL) containing test compounds in final concentrations ranging from 5 μM to 8.4×10^−5 μM (3 fold serial dilutions) were added to the cells and the cell plates were then incubated for 18 hours at 37° C. and 5% CO2. Control wells contained DMSO vehicle (total counts) or 0.5 μM of an in-house small molecule inhibitor (background counts). Duplicates were used for each sample. Luciferase activity was measured after a 20-minute incubation with 50 μl STEADY-GLO® luciferase reagents according to manufacturer's specifications (Promega, Cat. #E2550) and analyzed by Envision plate reader (PerkinElmer, Boston, Mass.).
(§4) The antagonist effect of compounds was expressed as 100×[1−(average sample−average background)/(average total−average background)] where sample is the luciferase activity in the presence of test compound, background is equal to the luciferase activity in the presence of the small molecule inhibitor control and the total is signal induced in DMSO wells.

human Notch 1 = assay: Notch-CBF1 Transactivation Assay (Notch 1); assay type: cell-based; settings: HeLa cells transfected with truncated Notch 1 and CBF1 luciferase reporter; 18 hours incubation
Description: as §1, §2, §3, §4

Structure (SMILES) | antitumor activity with oral administration (PO) (human tumor xenografts) | antitumor activity, intravenous route (IV) (human tumor xenografts; human tumor xenografts implanted in mice, IV) | IC50 (human Notch 3) [nM] | IC50 (human Notch 1) [nM]
Cc1nocc1[C@H](C(N)=O)[C@@H](CCC(F)(F)F)C(=O)N[C@H]1N=C(c2ccccc2)c2cccc3c2N(CC(F)(F)CO3)C1=O [Example 1, (2R,3R)—N-((7S)-3,3-Difluoro-6-oxo-9-phenyl-3,4,6,7-tetrahydro-2H-[1,4]diazepino[1,7,6-ef][1,5]benzoxazepin-7-yl)-3-(3-methyl-4-isoxazolyl)-2-(3,3,3-trifluoropropyl)succinamide] | showed antitumor activity | exhibited antitumor activity |  | 
NC(=O)[C@@H](CC1CC1)[C@@H](CCC(F)(F)F)C(=O)N[C@H]1N=C(c2ccccc2)c2cccc3c2N(CC(F)(F)CO3)C1=O [Example 2, (2R,3S)-3-(Cyclopropylmethyl)-N-((7S)-3,3-difluoro-6-oxo-9-phenyl-3,4,6,7-tetrahydro-2H-[1,4]diazepino[1,7,6-ef][1,5]benzoxazepin-7-yl)-2-(3,3,3-trifluoropropyl)succinamide] | showed antitumor activity |  |  | 
NC(=O)[C@@H](CC1CC1)[C@@H](CCC(F)(F)F)C(=O)N[C@H]1N=C(c2ccccc2)c2cccc3c2N(CCO3)C1=O [Example 6, (2R,3S)-3-(Cyclopropylmethyl)-N-((6S)-5-oxo-8-phenyl-2,3,5,6-tetrahydro[1,4]oxazino[2,3,4-jk][1,4]benzodiazepin-6-yl)-2-(3,3,3-trifluoropropyl)succinamide] |  |  | 14.8 | 
NC(=O)[C@@H](CCCF)[C@@H](CCC(F)(F)F)C(=O)N[C@H]1N=C(c2ccccc2)c2cccc3c2N(CCO3)C1=O [Example 8, (2R,3S)-3-(3-Fluoropropyl)-N-((6S)-5-oxo-8-phenyl-2,3,5,6-tetrahydro[1,4]oxazino[2,3,4-jk][1,4]benzodiazepin-6-yl)-2-(3,3,3-trifluoropropyl)succinamide] |  |  | 28.1 | 14.8
Cc1cccc(C2=N[C@H](NC(=O)[C@H](CCC(F)(F)F)[C@H](CCC(F)(F)F)C(N)=O)C(=O)N3CCOc4cccc2c43)c1 [Example 11, (2R,3S)—N-((6S)-8-(3-Methylphenyl)-5-oxo-2,3,5,6-tetrahydro[1,4]oxazino[2,3,4-jk][1,4]benzodiazepin-6-yl)-2,3-bis(3,3,3-trifluoropropyl)succinamide] |  |  | 14.7 | 
Cc1cccc(C2=N[C@H](NC(=O)[C@H](CCC(F)(F)F)[C@@H](C(N)=O)c3ccccc3)C(=O)N3CCOc4cccc2c43)c1 [Example 13, (2R,3R)—N-((6S)-8-(3-Methylphenyl)-5-oxo-2,3,5,6-tetrahydro[1,4]oxazino[2,3,4-jk][1,4]benzodiazepin-6-yl)-3-phenyl-2-(3,3,3-trifluoropropyl)succinamide] |  |  |  | 14.8
CCC[C@H](C(N)=O)[C@@H](CCC(F)(F)F)C(=O)N[C@H]1N=C(c2cccc(Cl)c2)c2cccc3c2N(CCO3)C1=O [Example 15, (2R,3S)—N-((6S)-8-(3-Chlorophenyl)-5-oxo-2,3,5,6-tetrahydro[1,4]oxazino[2,3,4-jk][1,4]benzodiazepin-6-yl)-3-propyl-2-(3,3,3-trifluoropropyl)succinamide] |  |  | 28.3 | 16.9
CCC[C@@H](C(=O)N[C@H]1N=C(c2ccccc2)c2cccc3c2N(CCO3)C1=O)[C@H](CCC(F)(F)F)C(N)=O [Example 17, (2R,3S)—N-((6S)-5-Oxo-8-phenyl-2,3,5,6-tetrahydro[1,4]oxazino[2,3,4-jk][1,4]benzodiazepin-6-yl)-2-propyl-3-(3,3,3-trifluoropropyl)succinamide] |  |  | 20.1 | 13.9
NC(=O)[C@@H](CC1CC1)[C@@H](CC1CC1)C(=O)N[C@H]1N=C(c2ccccc2)c2cccc3c2N(CCO3)C1=O [Example 18, (2R,3S)-2,3-Bis(cyclopropylmethyl)-N-((6S)-5-oxo-8-phenyl-2,3,5,6-tetrahydro[1,4]oxazino[2,3,4-jk][1,4]benzodiazepin-6-yl)succinamide] |  |  | 16.4 | 21.9
NC(=O)[C@@H](CC1CC1)[C@@H](CCC(F)(F)F)C(=O)N[C@H]1N=C(c2ccccc2)c2cccc3c2N(CCCO3)C1=O [Example 23, (2R,3S)-3-(Cyclopropylmethyl)-N-((7S)-6-oxo-9-phenyl-3,4,6,7-tetrahydro-2H-[1,4]diazepino[1,7,6-ef][1,5]benzoxazepin-7-yl)-2-(3,3,3-trifluoropropyl)succinamide] |  |  | 14.2 | 
Cc1nocc1[C@H](C(N)=O)[C@@H](CCC(F)(F)F)C(=O)N[C@H]1N=C(c2ccccc2)c2cccc3c2N(CCN3)C1=O [Example 24, (2R,3R)-3-(3-Methyl-4-isoxazolyl)-N-((6S)-5-oxo-8-phenyl-2,3,5,6-tetrahydro-1H-[1,4]diazepino[1,7,6-de]quinoxalin-6-yl)-2-(3,3,3-trifluoropropyl)succinamide] |  |  | 28.3 | 16.9
CCC[C@H](C(N)=O)[C@@H](CCC(F)(F)F)C(=O)N[C@H]1N=C(c2ccccc2)c2cccc3c2N(CCN3)C1=O [Example 25, (2R,3S)—N-((6S)-5-Oxo-8-phenyl-2,3,5,6-tetrahydro-1H-[1,4]diazepino[1,7,6-de]quinoxalin-6-yl)-3-propyl-2-(3,3,3-trifluoropropyl)succinamide] |  |  | 16.9 | 14.5
NC(=O)[C@@H](c1ccccc1)[C@@H](CCC(F)(F)F)C(=O)N[C@H]1N=C(c2ccccc2)c2cccc3c2N(CCN3)C1=O [Example 27, (2R,3R)—N-((6S)-5-Oxo-8-phenyl-2,3,5,6-tetrahydro-1H-[1,4]diazepino[1,7,6-de]quinoxalin-6-yl)-3-phenyl-2-(3,3,3-trifluoropropyl)succinamide] |  |  |  | 15.1
